Assay results taken from PubChem BioAssay AID732 (Emory University Molecular Libraries Screening Center, 2007).
“And” between values parts separate entries of the source, which are not always exact repeats. Equal entries are not always repeated. The source made the active and inactive calls. The rule behind the calls is not given here.

System: in vivo angiogenesis, blood vessel count
Assay: reduction of blood vessel formation in vivo – HTS, in vivo study (AID 732);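 note: zebrafish embryos dosed at one day post fertilization; 0% = reference inhibitor and 100% = plate mean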
Conditions: active compounds read low;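 tested at 30 µM in the well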

Row | Compound | vessel count % control
1 | CCCCCCC/C=C\CCCCCCCCC(=O)O | 106% (inactive)
2 | N[C@@H](Cc1c[nH]c2ccccc12)C(=O)O | 88.5% (inactive)
3 | NCC(CC(=O)O)c1ccc(Cl)cc1 (stereo unspecified) | 100% (inactive)
4 | N#C/C(=C\c1ccc(O)c(O)c1)C(=O)NCCCNC(=O)/C(C#N)=C/c1ccc(O)c(O)c1 | 118% (inactive)
5 | CCN(CC)CCOC(=O)c1ccc(N)cc1 | 112% (inactive)
6 | C[N+](C)(C)CCC(=O)c1cccc2ccccc12 | 0% (inactive)
7 | CN(C)CCCN1c2ccccc2CCc2ccc(Cl)cc21 | 85.2% (inactive)
8 | O=C(c1ccc(OCCN2CCCCC2)cc1)c1c(-c2ccc(O)cc2)sc2cc(O)ccc12 | 87.4% (inactive)
9 | C=C(C)[C@H]1Cc2c(ccc3c2O[C@@H]2COc4cc(OC)c(OC)cc4[C@@H]2C3=O)O1 | 0% (inactive)
10 | N=Nc1c(-c2c(O)[nH]c3c(Cl)cc(Cl)cc23)[nH]c2ccc(Br)cc12 | 53.5% (inactive)
11 | CC(C)N(CCC(C(N)=O)(c1ccccc1)c1ccccn1)C(C)C (stereo unspecified) | 99.1% (inactive) and 109% (inactive)
12 | NCC(O)c1ccc(O)cc1 (stereo unspecified) | 103% (inactive)
13 | CC[C@@H](C)[C@H]1O[C@]2(CC[C@@H]1C)C[C@@H]1C[C@@H](C/C=C(\C)[C@@H](O[C@H]3C[C@H](OC)[C@@H](O[C@H]4C[C@H](OC)[C@@H](O)[C@H](C)O4)[C@H](C)O3)[C@@H](C)/C=C/C=C3\CO[C@@H]4[C@H](O)C(C)=C[C@@H](C(=O)O1)[C@]34O)O2 | 78.7% (inactive)
14 | CC1CNCCN1S(=O)(=O)c1cccc2cnccc12 (stereo unspecified) | 97.5% (inactive) and 98.4% (inactive)
15 | O=C(Cc1ccc(Cl)c(Cl)c1)N1CCCCC1CN1CCCC1 (stereo unspecified) | 114% (inactive)
16 | NC1CONC1=O (stereo unspecified) | 117% (inactive)
17 | CC(=O)c1c(O)c(C)c(O)c(Cc2c(O)c3c(c(C(=O)/C=C/c4ccccc4)c2O)OC(C)(C)C=C3)c1O | 0% (inactive)
18 | CN[C@@H](C)[C@H](O)c1ccccc1 | 91.4% (inactive)
19 | CN/C(=C\[N+](=O)[O-])NCCSCc1ccc(CN(C)C)o1 | 112% (inactive)
20 | Cc1nc(N=Nc2ccc(S(=O)(=O)O)cc2S(=O)(=O)O)c(COP(=O)(O)O)c(C=O)c1O | 110% (inactive)
21 | CNC(=O)OCC[N+](C)(C)C | 96.2% (inactive)
22 | CCCN(CCC)CCc1c[nH]c2ccc(C(N)=O)cc12 | 80.1% (inactive)
23 | COc1nc(C)nc(Cl)c1NC1=NCCN1 | 81.3% (inactive)
24 | Nc1ncnc2c1ncn2C1CCCO1 (stereo unspecified) | 101% (inactive)

Row | Compound | vessel count % control
25 | CN1CCC2(CCN3CCc4c(oc5ccccc45)C3C2)N(C)C1=O (stereo unspecified) | 87.3% (inactive)
26 | NC(N)=NC(N)=Nc1cccc(Cl)c1 | 103% (inactive)
27 | CCCN1CCO[C@@H]2c3cc(O)ccc3OC[C@H]21 | 69.9% (inactive) and 97.2% (inactive)
28 | CC1=C(CC(=O)O)c2cc(F)ccc2/C1=C\c1ccc(S(C)=O)cc1 (stereo unspecified) | 89.8% (inactive)
29 | O=c1[nH]c2cc(C(F)(F)F)ccc2n1-c1cc(C(F)(F)F)ccc1O | 91.2% (inactive)
30 | C[N+](C)(C)CCOC(N)=O | 114% (inactive)
31 | NNCc1cccc(O)c1 | 85.8% (inactive)
32 | CCCc1c(-c2ccc(O)cc2)nn(-c2ccc(O)cc2)c1-c1ccc(O)cc1 | 106% (inactive)
33 | CCN1CCC[C@H]1CNC(=O)c1cc(S(N)(=O)=O)ccc1OC | 89.7% (inactive)
34 | C=CCc1ccccc1OCC(O)CNC(C)C (stereo unspecified) | 105% (inactive)
35 | Nc1ncnc2c1nc(Br)n2C1OC2COP(=O)(O)O[C@@H]2C1O (stereo partly specified) | 101% (inactive)
36 | CC(C)(C)NCC(O)COc1cccc2[nH]c(=O)[nH]c12 (stereo unspecified) | 103% (inactive)
37 | COc1ccc(C2CNC(=O)C2)cc1OC1CCCC1 (stereo unspecified) | 96.6% (inactive)
38 | O=C(O)CC[N+](=O)[O-] | 87.6% (inactive)
39 | COC(=O)C(C)(N)Cc1ccc(O)cc1 (stereo unspecified) | 123% (inactive)
40 | CC(=O)OCC1=C(C(=O)O)N2C(=O)[C@@H](NC(=O)Cc3cccs3)[C@H]2SC1 | 132% (inactive)
41 | CNCC(O)c1ccc(O)cc1 (stereo unspecified) | 131% (inactive)
42 | CN1CCN(C2=Nc3cc(Cl)ccc3Nc3ccccc32)CC1 | 98.7% (inactive)
43 | CC(O)C(C)OC(=O)[C@@H]1C[C@@H]2c3cccc4c3c(cn4C(C)C)C[C@H]2N(C)C1 (stereo partly specified) | 90.9% (inactive)
44 | OC[C@H]1NC[C@@H](O)[C@@H]1O | 96% (inactive)
45 | Oc1ccc(O)cc1 | 128% (inactive)
46 | COc1ccc(CN(CCN(C)C)c2ccccn2)cc1 | 106% (inactive)
47 | Cc1ccc(O)c(N=Nc2ccccc2)n1 | 112% (inactive)
48 | Cc1ccccc1/C=C/C1=NCCN1 | 102% (inactive)

Row | Compound | vessel count % control
49 | O=C1C2C=CC=CC2=NC(=S)N1CCN1CCC(=C(c2ccc(F)cc2)c2ccc(F)cc2)CC1 (stereo unspecified) | 78.2% (inactive)
50 | Cc1ccc(S(=O)(=O)NC(=O)NN2CCCCCC2)cc1 | 102% (inactive)
51 | COC(=O)[C@H]1[C@H]2C[C@@H]3c4[nH]c5cc(OC)ccc5c4CCN3C[C@H]2C[C@@H](OC(=O)c2cc(OC)c(OC)c(OC)c2)[C@@H]1OC | 75.8% (inactive)
52 | c1ccc2c(c1)CCCC2C1=NCCN1 (stereo unspecified) | 76% (inactive)
53 | Clc1ccc(N2CCN(Cc3c[nH]c4ncccc34)CC2)cc1 | 83.7% (inactive)
54 | COC(=O)C(N)Cc1ccc(Cl)cc1 (stereo unspecified) | 82.4% (inactive)
55 | CCCC[N+]1(C)C2CC(OC(=O)[C@H](CO)c3ccccc3)CC1C1OC12 (stereo partly specified) | 107% (inactive)
56 | CCCN(CC1CC1)c1nc(C)nc(Nc2c(Cl)cc(Cl)cc2Cl)c1Cl | 125% (inactive)
57 | CCCCCCCCCCCCCCCCCCOC[C@H](COP(=O)([O-])OCC[N+](C)(C)C)OC | 97.5% (inactive)
58 | O=C1NC(=O)C(c2ccccc2[N+](=O)[O-])=C1Nc1ccc(O)c(Cl)c1 | 105% (inactive)
59 | CC(N=C(NC#N)Nc1ccncc1)C(C)(C)C (stereo unspecified) | 98.9% (inactive)
60 | CC(C)C1C2CCC(C2)C1N (stereo unspecified) | 95.1% (inactive)
61 | S=C(S)N1CCCC1 | 73.2% (inactive)
62 | O=C(/C=C/c1ccc(O)c(O)c1)OCCc1ccccc1 | 0% (inactive)
63 | C[C@]12CCC(=O)C=C1CC[C@@H]1[C@@H]2[C@@H](O)C[C@@]2(C)[C@H]1CC[C@]2(O)C(=O)COC(=O)CCC(=O)O | 98.7% (inactive)
64 | O=C(O)C1=CCNCC1 | 131% (inactive)
65 | O=C1c2c(O)cc(O)cc2OC(c2ccc(O)c(O)c2)C1O (stereo unspecified) | 80.8% (inactive)
66 | CN=c1nc(-c2ccccc2)n(-c2ccccc2)s1 | 125% (inactive)
67 | CN1CCc2cc(Cl)c(O)cc2[C@@H](c2ccccc2)C1 | 97.5% (inactive)
68 | CCNC(=O)[C@H]1O[C@@H](n2cnc3c(N)ncnc32)C(O)[C@H]1O (stereo partly specified) | 110% (inactive)
69 | CC[C@H](NC(=O)c1c(C)c(-c2ccccc2)nc2ccccc12)c1ccccc1 | 126% (inactive)
70 | Nc1ccc2c3c(cccc13)C(=O)NC2=O | 0% (inactive)
71 | C=CCN1CC[C@]23CCCCC2[C@H]1Cc1ccc(O)cc13 (stereo partly specified) | 141% (inactive)
72 | CCCCCCCCC(=O)NCc1ccc(O)c(OC)c1 | 98.1% (inactive)

Row | Compound | vessel count % control
73 | CC1COc2c(N3CCN(C)CC3)c(F)cc3c(=O)c(C(=O)O)cn1c23 (stereo unspecified) | 74.9% (inactive)
74 | C=CC[C@H](N)C(=O)O | 111% (inactive)
75 | CCC(=O)c1ccc2c(c1)N(CCCN(C)C)c1ccccc1S2 | 112% (inactive)
76 | Nc1nc(N)c2nc(-c3ccccc3)c(N)nc2n1 | 109% (inactive)
77 | C[C@@]1(C2CCCC2)Cc2cc(OCC(=O)O)c(Cl)c(Cl)c2C1=O | 75.4% (inactive)
78 | C/C=C/CC(C)C(O)C1C(=O)NC(CC)C(=O)N(C)CC(=O)N(C)C(CC(C)C)C(=O)NC(C(C)C)C(=O)N(C)C(CC(C)C)C(=O)NC(C)C(=O)NC(C)C(=O)N(C)C(CC(C)C)C(=O)N(C)C(CC(C)C)C(=O)N(C)C(C(C)C)C(=O)N1C (stereo unspecified) | 108% (inactive)
79 | Cc1[nH]c2ccc(O)cc2c1CCN | 87% (inactive)
80 | CCCCC1C(=O)N(c2ccccc2)N(c2ccccc2)C1=O | 93.9% (inactive)
81 | CN1C(C)(C)CCCC1(C)C | 106% (inactive)
82 | CCCCCCCCCCCCCCCC(=O)NCCO | 96.1% (inactive)
83 | O=C1C(c2c(O)[nH]c3ccc([N+](=O)[O-])cc23)=Nc2ccc(Br)cc21 | 101% (inactive)
84 | CN(C)c1nc(N(C)C)nc(N(C)C)n1 | 86% (inactive)
85 | NCCCNCCCCNCCCN | 115% (inactive)
86 | CCc1cccc(N(C)C(N)=Nc2cccc3ccccc23)c1 | 105% (inactive)
87 | CC(=O)SC1CC2=CC(=O)CC[C@]2(C)C2CC[C@@]3(C)C(CC[C@@]34CCC(=O)O4)C12 (stereo partly specified) | 85.3% (inactive)
88 | COc1ccc2c(c1OC)C(=O)O[C@H]2[C@@H]1c2cc3c(cc2CCN1C)OCO3 | 116% (inactive)
89 | CN(C)C(=O)Oc1cccc([N+](C)(C)C)c1 | 87.6% (inactive)
90 | CCn1cc(C(=O)O)c(=O)c2cc(F)c(N3CCNC(C)C3)c(F)c21 (stereo unspecified) | 89.7% (inactive)
91 | CCCCCCCCCCCCCCCC(=O)NCC(COP(=O)([O-])OCC[N+](C)(C)C)OCC (stereo unspecified) | 115% (inactive)
92 | CN1[C@@H](CC(=O)c2ccccc2)CCC[C@H]1C[C@H](O)c1ccccc1 | 107% (inactive)
93 | NC(=O)COc1c(F)cc(SCCNS(=O)(=O)c2ccccc2)cc1F | 116% (inactive)
94 | OCCN1CCN(CCCN2c3ccccc3Sc3ccc(Cl)cc32)CC1 | 99.2% (inactive)
95 | CC(C)(C)c1cc(C=C(C#N)C#N)cc(C(C)(C)C)c1O | 0% (inactive)
96 | COc1ccc2c(c[n+](C)c3c4cc5c(cc4ccc23)OCO5)c1OC | 124% (inactive)
